# According to ChEMBL document CHEMBL5212743, “Selectivity Literature for EUbOPEN Chemogenomics Library wave 3” (2023):
# Columns and labels:
# Conditions in all cases: at 1 µM
# [1] = target: Serine/threonine-protein kinase TAO1 (Homo sapiens) (UniProt Q7L7X3); experiment: Selectivity interaction (KinomeScan (DiscoverX)) EUB0000702a TAOK1
# [2] = target: T1, Homeodomain-interacting protein kinase 4 (Homo sapiens) (UniProt Q8NE63)
# T1 sequence (whole entry): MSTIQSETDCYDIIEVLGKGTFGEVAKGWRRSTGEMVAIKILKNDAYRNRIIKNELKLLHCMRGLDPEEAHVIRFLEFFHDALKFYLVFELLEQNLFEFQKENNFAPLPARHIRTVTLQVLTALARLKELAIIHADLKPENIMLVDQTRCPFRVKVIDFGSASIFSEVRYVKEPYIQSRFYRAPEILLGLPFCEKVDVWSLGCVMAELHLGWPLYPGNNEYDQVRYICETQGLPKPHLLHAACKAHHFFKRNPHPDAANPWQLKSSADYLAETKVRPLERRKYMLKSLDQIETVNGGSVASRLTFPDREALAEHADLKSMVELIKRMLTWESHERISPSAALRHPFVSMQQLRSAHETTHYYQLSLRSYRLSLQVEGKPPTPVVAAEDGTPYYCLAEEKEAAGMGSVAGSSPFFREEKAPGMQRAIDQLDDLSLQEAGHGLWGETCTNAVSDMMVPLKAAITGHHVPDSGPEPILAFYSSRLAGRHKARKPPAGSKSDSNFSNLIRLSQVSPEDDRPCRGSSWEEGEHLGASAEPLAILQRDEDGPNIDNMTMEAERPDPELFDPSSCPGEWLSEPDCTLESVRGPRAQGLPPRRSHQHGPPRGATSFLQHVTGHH
# [3] = target: Mitogen-activated protein kinase kinase kinase kinase 5 (Homo sapiens) (UniProt Q9Y4K4)
# [4] = target: Tyrosine-protein kinase ABL1 (Homo sapiens, UniProt P00519)
# Tyrosine-protein kinase ABL1, sequence (P00519 whole entry): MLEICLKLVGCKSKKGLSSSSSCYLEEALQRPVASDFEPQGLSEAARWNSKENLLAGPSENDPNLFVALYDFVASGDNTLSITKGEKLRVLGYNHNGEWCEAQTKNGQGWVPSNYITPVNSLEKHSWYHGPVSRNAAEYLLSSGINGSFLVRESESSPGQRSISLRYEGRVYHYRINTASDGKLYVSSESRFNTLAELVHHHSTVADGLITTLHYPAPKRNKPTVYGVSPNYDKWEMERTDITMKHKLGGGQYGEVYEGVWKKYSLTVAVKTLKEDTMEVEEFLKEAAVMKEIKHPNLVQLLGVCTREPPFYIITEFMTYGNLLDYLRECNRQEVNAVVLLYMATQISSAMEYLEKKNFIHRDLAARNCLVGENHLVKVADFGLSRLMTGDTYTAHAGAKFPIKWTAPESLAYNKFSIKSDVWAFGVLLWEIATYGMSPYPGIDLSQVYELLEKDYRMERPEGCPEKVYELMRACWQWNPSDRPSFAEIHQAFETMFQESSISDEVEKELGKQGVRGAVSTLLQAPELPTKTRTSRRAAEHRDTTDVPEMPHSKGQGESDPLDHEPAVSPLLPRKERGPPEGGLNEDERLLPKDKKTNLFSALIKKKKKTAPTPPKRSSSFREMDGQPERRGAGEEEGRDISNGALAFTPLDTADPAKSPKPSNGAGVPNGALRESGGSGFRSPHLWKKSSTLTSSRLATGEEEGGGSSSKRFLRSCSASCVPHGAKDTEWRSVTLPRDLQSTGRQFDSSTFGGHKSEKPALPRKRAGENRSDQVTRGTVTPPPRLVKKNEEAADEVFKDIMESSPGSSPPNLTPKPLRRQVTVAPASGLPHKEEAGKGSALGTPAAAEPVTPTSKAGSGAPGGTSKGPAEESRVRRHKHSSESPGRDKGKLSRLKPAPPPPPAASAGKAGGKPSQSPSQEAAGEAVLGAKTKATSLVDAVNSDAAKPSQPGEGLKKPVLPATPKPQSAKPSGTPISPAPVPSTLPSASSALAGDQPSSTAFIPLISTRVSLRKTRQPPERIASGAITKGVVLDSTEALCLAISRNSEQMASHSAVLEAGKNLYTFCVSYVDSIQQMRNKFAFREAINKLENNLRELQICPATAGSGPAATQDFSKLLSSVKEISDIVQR
# [5] = target: T2, Ephrin type-B receptor 6 (Homo sapiens) (UniProt O15197)
# T2 sequence (whole entry): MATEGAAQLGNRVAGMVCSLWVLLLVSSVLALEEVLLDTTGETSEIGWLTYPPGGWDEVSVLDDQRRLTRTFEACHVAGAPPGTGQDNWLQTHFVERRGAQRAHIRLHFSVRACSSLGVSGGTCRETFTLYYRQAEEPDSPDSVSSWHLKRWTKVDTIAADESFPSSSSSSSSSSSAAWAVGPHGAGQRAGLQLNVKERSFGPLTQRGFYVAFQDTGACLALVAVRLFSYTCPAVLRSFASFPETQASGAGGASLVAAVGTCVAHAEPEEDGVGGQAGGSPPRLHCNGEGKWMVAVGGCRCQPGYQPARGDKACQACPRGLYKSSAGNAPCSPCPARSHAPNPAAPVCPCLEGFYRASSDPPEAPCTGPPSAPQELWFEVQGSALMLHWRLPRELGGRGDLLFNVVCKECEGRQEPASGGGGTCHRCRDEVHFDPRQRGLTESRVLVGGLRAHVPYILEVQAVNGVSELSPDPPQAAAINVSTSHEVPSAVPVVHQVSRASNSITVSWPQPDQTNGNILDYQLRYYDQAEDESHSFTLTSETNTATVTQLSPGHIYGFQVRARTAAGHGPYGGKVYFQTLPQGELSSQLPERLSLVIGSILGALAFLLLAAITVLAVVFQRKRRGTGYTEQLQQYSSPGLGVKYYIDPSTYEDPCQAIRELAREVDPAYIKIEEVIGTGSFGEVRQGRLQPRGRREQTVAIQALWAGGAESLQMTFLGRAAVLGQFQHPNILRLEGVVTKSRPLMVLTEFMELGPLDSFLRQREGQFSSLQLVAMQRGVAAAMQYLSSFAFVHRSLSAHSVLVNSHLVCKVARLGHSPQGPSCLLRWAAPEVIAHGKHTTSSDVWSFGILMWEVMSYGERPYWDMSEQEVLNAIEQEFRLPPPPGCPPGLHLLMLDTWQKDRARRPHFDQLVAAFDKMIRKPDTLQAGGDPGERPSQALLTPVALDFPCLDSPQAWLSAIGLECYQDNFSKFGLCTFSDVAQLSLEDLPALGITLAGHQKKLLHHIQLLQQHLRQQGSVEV
# [6] = target: Macrophage colony-stimulating factor 1 receptor (Homo sapiens) (UniProt P07333)
# [7] = target: Mast/stem cell growth factor receptor Kit (Homo sapiens, UniProt P10721)
# Mast/stem cell growth factor receptor Kit, sequence (P10721 whole entry): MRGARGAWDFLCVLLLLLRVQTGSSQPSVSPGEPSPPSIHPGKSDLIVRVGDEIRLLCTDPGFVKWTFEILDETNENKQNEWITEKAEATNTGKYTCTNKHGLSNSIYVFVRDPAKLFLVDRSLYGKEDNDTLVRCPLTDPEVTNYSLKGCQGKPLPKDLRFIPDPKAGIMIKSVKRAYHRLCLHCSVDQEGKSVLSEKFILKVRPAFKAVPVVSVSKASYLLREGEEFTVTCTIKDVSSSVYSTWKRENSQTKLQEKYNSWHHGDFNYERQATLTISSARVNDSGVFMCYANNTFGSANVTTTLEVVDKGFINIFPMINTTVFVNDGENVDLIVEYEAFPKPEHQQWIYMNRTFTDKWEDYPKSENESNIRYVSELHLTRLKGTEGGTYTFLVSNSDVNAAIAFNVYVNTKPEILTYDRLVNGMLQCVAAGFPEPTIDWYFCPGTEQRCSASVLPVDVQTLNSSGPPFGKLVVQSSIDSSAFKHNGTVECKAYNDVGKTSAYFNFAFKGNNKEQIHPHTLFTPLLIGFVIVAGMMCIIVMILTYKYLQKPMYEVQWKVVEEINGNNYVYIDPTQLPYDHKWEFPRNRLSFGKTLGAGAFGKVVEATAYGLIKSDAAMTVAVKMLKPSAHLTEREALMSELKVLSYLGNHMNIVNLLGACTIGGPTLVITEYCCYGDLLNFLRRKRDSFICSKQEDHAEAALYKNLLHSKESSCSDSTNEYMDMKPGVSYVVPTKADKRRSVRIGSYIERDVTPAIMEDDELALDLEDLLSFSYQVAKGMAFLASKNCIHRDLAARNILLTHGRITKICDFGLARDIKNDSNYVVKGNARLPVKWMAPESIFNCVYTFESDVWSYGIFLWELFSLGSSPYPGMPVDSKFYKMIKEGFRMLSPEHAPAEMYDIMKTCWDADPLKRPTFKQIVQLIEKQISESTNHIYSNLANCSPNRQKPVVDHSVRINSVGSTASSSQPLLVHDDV
# [8] = system: ALK tyrosine kinase receptor (Homo sapiens), Q9UM73 [C1156Y]; experiment: Selectivity interaction (KinomeScan (DiscoverX)) EUB0000169b ALK
# ALK tyrosine kinase receptor (Homo sapiens), Q9UM73 [C1156Y], sequence (Q9UM73 whole entry C1156Y, looked up): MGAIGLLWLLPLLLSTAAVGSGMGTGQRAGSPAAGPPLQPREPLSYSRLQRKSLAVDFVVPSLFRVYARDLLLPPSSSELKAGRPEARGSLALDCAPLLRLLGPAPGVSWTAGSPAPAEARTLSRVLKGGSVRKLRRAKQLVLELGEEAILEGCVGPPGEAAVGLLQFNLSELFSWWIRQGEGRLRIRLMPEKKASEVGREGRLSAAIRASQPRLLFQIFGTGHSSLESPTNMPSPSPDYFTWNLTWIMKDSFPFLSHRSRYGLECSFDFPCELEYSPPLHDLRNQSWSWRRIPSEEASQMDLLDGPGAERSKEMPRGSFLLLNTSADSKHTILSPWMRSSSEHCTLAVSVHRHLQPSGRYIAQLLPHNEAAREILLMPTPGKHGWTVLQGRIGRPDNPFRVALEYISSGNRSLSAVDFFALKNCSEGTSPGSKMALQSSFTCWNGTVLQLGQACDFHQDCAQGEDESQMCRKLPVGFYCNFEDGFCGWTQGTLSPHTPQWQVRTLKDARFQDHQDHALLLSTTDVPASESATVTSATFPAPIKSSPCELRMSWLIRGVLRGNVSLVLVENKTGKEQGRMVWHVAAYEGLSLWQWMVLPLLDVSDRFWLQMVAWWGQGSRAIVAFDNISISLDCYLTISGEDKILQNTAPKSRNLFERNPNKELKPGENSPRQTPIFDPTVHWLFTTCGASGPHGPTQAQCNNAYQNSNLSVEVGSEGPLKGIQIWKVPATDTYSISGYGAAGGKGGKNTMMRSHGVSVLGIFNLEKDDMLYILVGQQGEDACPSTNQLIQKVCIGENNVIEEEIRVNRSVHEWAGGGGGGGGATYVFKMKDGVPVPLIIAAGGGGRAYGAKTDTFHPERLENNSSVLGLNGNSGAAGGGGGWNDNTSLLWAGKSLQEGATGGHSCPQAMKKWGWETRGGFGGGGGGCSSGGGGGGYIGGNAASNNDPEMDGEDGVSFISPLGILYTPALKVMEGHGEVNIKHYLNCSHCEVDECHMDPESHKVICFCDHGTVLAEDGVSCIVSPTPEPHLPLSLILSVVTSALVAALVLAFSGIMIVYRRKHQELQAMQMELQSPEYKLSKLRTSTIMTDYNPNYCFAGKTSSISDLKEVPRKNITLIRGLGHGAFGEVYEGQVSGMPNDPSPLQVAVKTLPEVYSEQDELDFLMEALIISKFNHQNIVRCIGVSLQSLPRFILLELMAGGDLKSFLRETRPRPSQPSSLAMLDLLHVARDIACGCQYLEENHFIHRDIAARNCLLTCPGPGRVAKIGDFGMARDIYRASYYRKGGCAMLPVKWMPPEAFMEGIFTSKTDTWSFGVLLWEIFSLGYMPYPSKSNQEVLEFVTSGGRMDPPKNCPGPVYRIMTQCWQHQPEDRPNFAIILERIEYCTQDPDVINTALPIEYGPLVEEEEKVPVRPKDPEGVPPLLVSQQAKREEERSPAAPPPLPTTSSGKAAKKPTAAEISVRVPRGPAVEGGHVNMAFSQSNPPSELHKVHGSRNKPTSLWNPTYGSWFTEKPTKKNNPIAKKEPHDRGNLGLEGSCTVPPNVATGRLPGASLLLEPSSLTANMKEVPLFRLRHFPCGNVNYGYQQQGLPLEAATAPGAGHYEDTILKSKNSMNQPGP
# [9] = target: T3, Serine/threonine-protein kinase TAO3 (Homo sapiens) (UniProt Q9H2K8); experiment: Selectivity interaction (KinomeScan (DiscoverX)) EUB0000178b TAOK3
# T3 sequence (whole entry): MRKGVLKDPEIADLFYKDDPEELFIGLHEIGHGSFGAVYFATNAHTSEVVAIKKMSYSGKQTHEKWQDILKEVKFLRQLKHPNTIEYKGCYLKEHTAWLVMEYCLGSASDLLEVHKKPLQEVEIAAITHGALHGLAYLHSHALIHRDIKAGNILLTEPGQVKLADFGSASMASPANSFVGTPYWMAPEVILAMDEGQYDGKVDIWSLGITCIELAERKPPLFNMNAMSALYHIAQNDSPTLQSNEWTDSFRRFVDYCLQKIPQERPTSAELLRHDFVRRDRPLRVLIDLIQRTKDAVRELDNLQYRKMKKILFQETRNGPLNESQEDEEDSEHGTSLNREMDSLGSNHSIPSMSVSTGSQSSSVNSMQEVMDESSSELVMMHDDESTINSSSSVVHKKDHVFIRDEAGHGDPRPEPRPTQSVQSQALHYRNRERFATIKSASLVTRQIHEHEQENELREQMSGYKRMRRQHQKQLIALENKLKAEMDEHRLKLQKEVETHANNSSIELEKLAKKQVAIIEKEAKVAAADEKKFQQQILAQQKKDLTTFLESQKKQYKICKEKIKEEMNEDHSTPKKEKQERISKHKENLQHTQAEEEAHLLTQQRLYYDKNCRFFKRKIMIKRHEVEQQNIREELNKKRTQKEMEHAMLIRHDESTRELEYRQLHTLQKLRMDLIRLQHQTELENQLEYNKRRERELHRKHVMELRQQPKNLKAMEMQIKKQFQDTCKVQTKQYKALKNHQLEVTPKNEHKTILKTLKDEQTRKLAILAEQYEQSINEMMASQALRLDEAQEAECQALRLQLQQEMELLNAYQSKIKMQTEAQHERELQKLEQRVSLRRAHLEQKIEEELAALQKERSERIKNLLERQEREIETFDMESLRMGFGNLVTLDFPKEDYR
# [10] = target: Tyrosine-protein kinase JAK1 (Homo sapiens, UniProt P23458); experiment: Selectivity interaction (KinomeScan (DiscoverX)) EUB0000178b JAK1@kinase 2
# Serine/threonine-protein kinase TAO1 (Homo sapiens), sequence (Q7L7X3 whole entry): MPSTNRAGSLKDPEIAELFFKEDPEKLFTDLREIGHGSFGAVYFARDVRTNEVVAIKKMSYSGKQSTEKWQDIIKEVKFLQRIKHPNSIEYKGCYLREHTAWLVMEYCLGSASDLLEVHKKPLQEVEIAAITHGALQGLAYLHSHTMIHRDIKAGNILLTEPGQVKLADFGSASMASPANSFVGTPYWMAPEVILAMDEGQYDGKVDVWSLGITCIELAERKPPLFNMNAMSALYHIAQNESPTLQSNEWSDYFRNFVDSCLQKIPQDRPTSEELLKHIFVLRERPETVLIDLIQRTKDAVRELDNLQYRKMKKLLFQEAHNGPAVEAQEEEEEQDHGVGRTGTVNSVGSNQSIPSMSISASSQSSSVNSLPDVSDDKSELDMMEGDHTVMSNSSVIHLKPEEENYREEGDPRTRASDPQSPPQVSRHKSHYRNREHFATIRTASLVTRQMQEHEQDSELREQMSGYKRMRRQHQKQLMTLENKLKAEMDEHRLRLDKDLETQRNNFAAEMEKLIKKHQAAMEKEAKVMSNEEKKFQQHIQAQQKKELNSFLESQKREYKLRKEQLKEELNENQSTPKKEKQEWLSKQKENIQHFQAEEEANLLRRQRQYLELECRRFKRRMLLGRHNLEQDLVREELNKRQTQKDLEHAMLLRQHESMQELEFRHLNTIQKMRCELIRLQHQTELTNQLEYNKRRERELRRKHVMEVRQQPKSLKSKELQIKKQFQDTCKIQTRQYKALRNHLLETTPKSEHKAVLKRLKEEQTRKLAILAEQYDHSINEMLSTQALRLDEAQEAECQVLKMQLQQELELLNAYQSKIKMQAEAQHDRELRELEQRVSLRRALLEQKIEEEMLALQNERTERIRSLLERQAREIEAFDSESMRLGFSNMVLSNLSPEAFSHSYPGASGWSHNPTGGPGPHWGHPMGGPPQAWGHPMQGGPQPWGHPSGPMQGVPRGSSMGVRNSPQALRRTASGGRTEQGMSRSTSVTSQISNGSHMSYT
compound,measurement,setting,value
CN(c1ccnc(CNc2nc(Nc3ccc4c(c3)CC(=O)N4)ncc2C(F)(F)F)n1)S(C)(=O)=O [PF-00911705],% of control,[1],3.7%
CCOc1cn(-c2ccc(F)cc2C)nc1C(=O)Nc1ccc(Oc2ccnc3cc(OC)c(OC)cc23)c(F)c1,% of control,[2],< 10%
same,% of control,[3],< 10%
same,% of control,[4],< 10%
same,% of control,[5],< 10%
same,% of control,[6],< 10%
same,% of control,[7],< 10%
CC[C@@H]1C(=O)N(C)c2cnc(Nc3ccc(C(=O)NC4CCN(C)CC4)cc3OC)nc2N1C1CCCC1,% of control,[8],0.3%
CN1C(=O)c2sccc2N(C)c2nc(Nc3ccc(S(N)(=O)=O)cc3)ncc21,% of control,[9],4.5%
same,% of control,[10],4.3%
